The test system of one assay is RSV-A2-GFP virus. In words: microbe, parasite or virus in culture. It is filed as cell-based, Human Respiratory Syncytial Virus. Conditions: Calu-1 cells, RSV-A2-GFP MOI=1.2, 96 hrs, GFP-expressing cells counted. In outline: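 Assay-ready frozen Calu-1 cells (20,000 cells/mL) were infected with RSV-A2-GFP at MOI 1.2 in DMEM with 2% FBS and exposed to a 10-point 3-fold compound dilution for 96 h at 37 °C. GFP-positive cells were counted by imaging, with same-well CellTiter-Glo for cytotoxicity. IC50 and CC50 came from 4-parameter logistic fits.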

The next assay deals with hMPV-GFP virus. The experiment in a line: microbe, parasite or virus in culture. The format is cell-based, Human Metapneumovirus. Conditions: VERO cells, hMPV-GFP MOI=1.25, 48 hrs, GFP-expressing cells counted. In outline: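 VERO cells infected with GFP-expressing hMPV at MOI 1.25 and exposed to compound in 10-point 3-fold dilutions (typical final 40,300–2 nM) for 48 h at 37 °C. GFP-positive cells counted by imaging; same-well CellTiter-Glo for cytotoxicity. IC50 and CC50 from 4-parameter logistic fits.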

Setting [1] is: Table I Summary of Activities for RSV, read-out: RSV EC50.
The mark [2] stands for this setting: Table II Summary of Activities for hMPV, read-out: RSV EC50.
Setting [3] is: human respiratory syncytial virus, Calu-1, 96 h, read-out: RSV EC50, Table I Summary of Activities for RSV.
The mark [4] stands for this setting: Vero, 48 h, read-out: RSV EC50, Table II Summary of Activities for hMPV.

Like-named read-outs stand apart in the source and are kept apart here. Bounds are passed on as bounds.

What is called EC50 is the concentration that produces a half-maximal response. With `Cc1nc(-c2cscn2)sc1C(=O)N1C[C@@H]2[C@H](C1)[C@H]2Oc1cc(C(C)(C)N)cc(-c2ccc(F)cc2F)n1` [Example 33, ((1R,5S,6s)-6-((4-(2-aminopropan-2-yl)-6-(2,4-difluorophenyl)pyridin-2-yl)oxy)-3-azabicyclo[3.1.0]hexan-3-yl)(4-methyl-[2,4′-bithiazol]-5-yl)methanone], the EC50 with RSV-A2-GFP virus (setting [1]) is less than 10 nM; in the assay on hMPV-GFP virus (setting [2]), more than 100 nM.
In the same order, the values of `CC(C)(N)c1cc(O[C@H]2[C@@H]3CN(C(=O)c4sc(-c5cscn5)nc4C4CC4)C[C@@H]32)nc(-c2ccc(F)cc2F)c1` [Example 34, ((1R,5S,6s)-6-((4-(2-aminopropan-2-yl)-6-(2,4-difluorophenyl)pyridin-2-yl)oxy)-3-azabicyclo[3.1.0]hexan-3-yl)(4-cyclopropyl-[2,4′-bithiazol]-5-yl)methanone] are less than 10 nM and 10 to 100 nM.
In the same order, the values of `Cn1nc(-c2ncco2)cc1C(=O)N1C[C@@H]2[C@H](C1)[C@H]2Oc1cc(C(C)(C)N)cc(-c2ccc3c(c2)CC3(F)F)n1` [Example 35, ((1R,5S,6s)-6-((4-(2-aminopropan-2-yl)-6-(7,7-difluorobicyclo[4.2.0]octa-1(6),2,4-trien-3-yl)pyridin-2-yl)oxy)-3-azabicyclo[3.1.0]hexan-3-yl)(1-methyl-3-(oxazol-2-yl)-1H-pyrazol-5-yl)methanone] are less than 10 nM and more than 100 nM.
Consider `Cn1nc(-c2ccon2)cc1C(=O)N1C[C@@H]2[C@H](C1)[C@H]2Oc1cc(C(C)(C)N)cc(-c2ccc3c(c2)CC3(F)F)n1` [Example 36, ((1R,5S,6s)-6-((4-(2-aminopropan-2-yl)-6-(7,7-difluorobicyclo[4.2.0]octa-1(6),2,4-trien-3-yl)pyridin-2-yl)oxy)-3-azabicyclo[3.1.0]hexan-3-yl)(3-(isoxazol-3-yl)-1-methyl-1H-pyrazol-5-yl)methanone], for which the EC50 with RSV-A2-GFP virus (setting [1]) is less than 10 nM; with hMPV-GFP virus (setting [2]), more than 100 nM.
For the molecule `Cc1nc(-c2ncco2)sc1C(=O)N1C[C@@H]2[C@H](C1)[C@H]2Oc1cc(C(C)(C)N)cc(-n2cc(C3CC3)cn2)n1` [Example 37, ((1R,5S,6s)-6-((4-(2-aminopropan-2-yl)-6-(4-cyclopropyl-1H-pyrazol-1-yl)pyridin-2-yl)oxy)-3-azabicyclo[3.1.0]hexan-3-yl)(4-methyl-2-(oxazol-2-yl)thiazol-5-yl)methanone], the EC50 in the assay with RSV-A2-GFP virus (setting [1]) is less than 10 nM; in the assay with hMPV-GFP virus (setting [2]), more than 100 nM.
As to `Cn1nc(-c2cscn2)cc1C(=O)N1C[C@@H]2[C@H](C1)[C@H]2Oc1cc(C(C)(C)N)cc(-n2cc(C3CC3)cn2)n1` [Example 38, ((1R,5S,6s)-6-((4-(2-aminopropan-2-yl)-6-(4-cyclopropyl-1H-pyrazol-1-yl)pyridin-2-yl)oxy)-3-azabicyclo[3.1.0]hexan-3-yl)(1-methyl-3-(thiazol-4-yl)-1H-pyrazol-5-yl)methanone], the EC50 was less than 10 nM in the assay with RSV-A2-GFP virus (setting [1]) and more than 100 nM with hMPV-GFP virus (setting [2]).
In the same order, the values of `Cn1nc(-c2cscn2)cc1C(=O)N1C[C@@H]2[C@H](C1)[C@H]2Oc1cc(C(C)(C)N)cc(N2CCC(C)(C)CC2)n1` [Example 39, ((1R,5S,6s)-6-((4-(2-aminopropan-2-yl)-6-(4,4-dimethylpiperidin-1-yl)pyridin-2-yl)oxy)-3-azabicyclo[3.1.0]hexan-3-yl)(1-methyl-3-(thiazol-4-yl)-1H-pyrazol-5-yl)methanone] are less than 10 nM and more than 100 nM.
In the case of `Cn1nc(-c2ncco2)cc1C(=O)N1C[C@@H]2[C@H](C1)[C@H]2Oc1cc(C(C)(C)N)cc(N2CCC(C(F)(F)F)CC2)n1` [Example 40, ((1R,5S,6s)-6-((4-(2-aminopropan-2-yl)-6-(4-(trifluoromethyl)piperidin-1-yl)pyridin-2-yl)oxy)-3-azabicyclo[3.1.0]hexan-3-yl)(1-methyl-3-(oxazol-2-yl)-1H-pyrazol-5-yl)methanone], the EC50 in the assay with RSV-A2-GFP virus (setting [1]) was less than 10 nM; in the assay with hMPV-GFP virus (setting [2]) it was more than 100 nM.
In the case of `Cn1nc(-c2cscn2)cc1C(=O)N1C[C@@H]2[C@H](C1)[C@H]2Oc1cc(C(C)(C)N)cc(N2CCC(C(F)(F)F)CC2)n1` [Example 41, ((1R,5S,6s)-6-((4-(2-aminopropan-2-yl)-6-(4-(trifluoromethyl)piperidin-1-yl)pyridin-2-yl)oxy)-3-azabicyclo[3.1.0]hexan-3-yl)(1-methyl-3-(thiazol-4-yl)-1H-pyrazol-5-yl)methanone], the EC50 in the assay with RSV-A2-GFP virus (setting [1]) is less than 10 nM; in the assay on hMPV-GFP virus (setting [2]), more than 100 nM.
With `Cn1nc(-c2cscn2)cc1C(=O)N1C[C@@H]2[C@H](C1)[C@H]2Oc1cc(C(C)(C)N)cc(OCC23CC(C2)C3)n1` [Example 42, ((1R,5S,6s)-6-((4-(2-aminopropan-2-yl)-6-(bicyclo[1.1.1]pentan-1-ylmethoxy)pyridin-2-yl)oxy)-3-azabicyclo[3.1.0]hexan-3-yl)(1-methyl-3-(thiazol-4-yl)-1H-pyrazol-5-yl)methanone], the values for the EC50 in the assay with RSV-A2-GFP virus (setting [1]) and with hMPV-GFP virus (setting [2]) were less than 10 nM and more than 100 nM, respectively.
In the case of `Cn1nc(-c2cscn2)cc1C(=O)N1C[C@@H]2[C@H](C1)[C@H]2Oc1cc(C(N)=O)cc(-c2ccc(F)cc2)n1` [Example 47, 2-(4-fluorophenyl)-6-(((1R,5S,6s)-3-(1-methyl-3-(thiazol-4-yl)-1H-pyrazole-5-carbonyl)-3-azabicyclo[3.1.0]hexan-6-yl)oxy)isonicotinamide], the EC50 is less than 10 nM in the assay with RSV-A2-GFP virus (setting [3]) and more than 100 nM in the assay on hMPV-GFP virus (setting [4]).
For `Cn1nc(-c2cscn2)cc1C(=O)N1C[C@@H]2[C@H](C1)[C@H]2Oc1cc(C(C)(C)C(N)=O)cc(-c2ccc(F)cc2)n1` [Example 48, 2-(2-(4-fluorophenyl)-6-(((1R,5S,6s)-3-(1-methyl-3-(thiazol-4-yl)-1H-pyrazole-5-carbonyl)-3-azabicyclo[3.1.0]hexan-6-yl)oxy)pyridin-4-yl)-2-methylpropanamide] the same measures were less than 10 nM and more than 100 nM.
With `Cn1nc(-c2cscn2)cc1C(=O)N1C[C@@H]2[C@H](C1)[C@H]2Oc1cc(C2(N)CCC2)cc(-c2ccc(F)cc2)n1` [Example 52, ((1R,5S,6s)-6-((4-(1-aminocyclobutyl)-6-(4-fluorophenyl)pyridin-2-yl)oxy)-3-azabicyclo[3.1.0]hexan-3-yl)(1-methyl-3-(thiazol-4-yl)-1H-pyrazol-5-yl)methanone], the EC50 was less than 10 nM in the assay on RSV-A2-GFP virus (setting [1]) and more than 100 nM in the assay with hMPV-GFP virus (setting [2]).
For `Cn1nc(-c2cscn2)cc1C(=O)N1C[C@@H]2[C@H](C1)[C@H]2Oc1cc(C2(N)CCCC2)cc(-c2ccc(F)cc2)n1` [Example 53, ((1R,5S,6s)-6-((4-(1-aminocyclopentyl)-6-(4-fluorophenyl)pyridin-2-yl)oxy)-3-azabicyclo[3.1.0]hexan-3-yl)(1-methyl-3-(thiazol-4-yl)-1H-pyrazol-5-yl)methanone], the EC50 in the assay on RSV-A2-GFP virus (setting [3]) was less than 10 nM; with hMPV-GFP virus (setting [4]), more than 100 nM.
On to `Cn1nc(-c2cscn2)cc1C(=O)N1C[C@@H]2[C@H](C1)[C@H]2Oc1cc(C(C)(C)CN)cc(-c2ccc(F)cc2)n1` [Example 54, ((1R,5S,6s)-6-((4-(1-amino-2-methylpropan-2-yl)-6-(4-fluorophenyl)pyridin-2-yl)oxy)-3-azabicyclo[3.1.0]hexan-3-yl)(1-methyl-3-(thiazol-4-yl)-1H-pyrazol-5-yl)methanone], for which the figures for the EC50 with RSV-A2-GFP virus (setting [3]) and with hMPV-GFP virus (setting [4]) were less than 10 nM and 10 to 100 nM, respectively.
In the same order, the values of `Cn1nc(-c2cscn2)cc1C(=O)N1C[C@@H]2[C@H](C1)[C@H]2Oc1cc(-c2ccc(F)cc2)cc(C(C)(C)N)n1` [Example 59, ((1R,5S,6s)-6-((6-(2-aminopropan-2-yl)-4-(4-fluorophenyl)pyridin-2-yl)oxy)-3-azabicyclo[3.1.0]hexan-3-yl)(1-methyl-3-(thiazol-4-yl)-1H-pyrazol-5-yl)methanone] are less than 10 nM and more than 100 nM.
As to `Cn1nc(-c2ncco2)cc1C(=O)N1C[C@@H]2[C@H](C1)[C@H]2Oc1cc(-c2ccc(F)cc2)cc(C(C)(C)N)n1` [Example 60, ((1R,5S,6s)-6-((6-(2-aminopropan-2-yl)-4-(4-fluorophenyl)pyridin-2-yl)oxy)-3-azabicyclo[3.1.0]hexan-3-yl)(1-methyl-3-(oxazol-2-yl)-1H-pyrazol-5-yl)methanone], the figures for the EC50 in the assay with RSV-A2-GFP virus (setting [1]) and in the assay on hMPV-GFP virus (setting [2]) were less than 10 nM and more than 100 nM, respectively.
For `Cn1nc(-c2cscn2)cc1C(=O)N1C[C@@H]2[C@H](C1)[C@H]2Oc1cc(C(C)(C)N)cc(C2(C)CCCC2)n1` [Example 63, ((1R,5S,6s)-6-((4-(2-aminopropan-2-yl)-6-(1-methylcyclopentyl)pyridin-2-yl)oxy)-3-azabicyclo[3.1.0]hexan-3-yl)(1-methyl-3-(thiazol-4-yl)-1H-pyrazol-5-yl)methanone], the EC50 with RSV-A2-GFP virus (setting [3]) is less than 10 nM; with hMPV-GFP virus (setting [4]), more than 100 nM.
In the same order, the values of `Cn1nc(-c2ccon2)cc1C(=O)N1C[C@@H]2[C@H](C1)[C@H]2Oc1cc(C(C)(C)N)cc(N2CCC(C(F)(F)F)CC2)n1` [Example 64, ((1R,5S,6s)-6-((4-(2-aminopropan-2-yl)-6-(4-(trifluoromethyl)piperidin-1-yl)pyridin-2-yl)oxy)-3-azabicyclo[3.1.0]hexan-3-yl)(3-(isoxazol-3-yl)-1-methyl-1H-pyrazol-5-yl)methanone] are less than 10 nM and more than 100 nM.

Source of the values: US12565494B2, “Inhibitors of human respiratory syncytial virus and metapneumovirus” (priority 2022, dated 2026).
